# In ChEMBL document CHEMBL4138153, “Synthesis, monoamine oxidase inhibition activity and molecular docking studies of novel 4-hydroxy-N'-[benzylidene or 1-phenylethylidene]-2-H/methyl/benzyl-1,2-benzothiazine-3-carbohydrazide 1,1-dioxides” (Eur J Med Chem, 2018):
# Columns and labels:
# [1] = molecular target: T1, Amine oxidase [flavin-containing] A (Rattus norvegicus, UniProt P21396); assay: Inhibition of MAO-A in rat liver mitochondria using p-tyramine as substrate preincubated for 10 mins followed by substrate addition measured after 30 mins in presence of MAO-B inhibitor deprenyl by Amplex red dye-based fluorescence assay
# T1 sequence (P21396 whole entry): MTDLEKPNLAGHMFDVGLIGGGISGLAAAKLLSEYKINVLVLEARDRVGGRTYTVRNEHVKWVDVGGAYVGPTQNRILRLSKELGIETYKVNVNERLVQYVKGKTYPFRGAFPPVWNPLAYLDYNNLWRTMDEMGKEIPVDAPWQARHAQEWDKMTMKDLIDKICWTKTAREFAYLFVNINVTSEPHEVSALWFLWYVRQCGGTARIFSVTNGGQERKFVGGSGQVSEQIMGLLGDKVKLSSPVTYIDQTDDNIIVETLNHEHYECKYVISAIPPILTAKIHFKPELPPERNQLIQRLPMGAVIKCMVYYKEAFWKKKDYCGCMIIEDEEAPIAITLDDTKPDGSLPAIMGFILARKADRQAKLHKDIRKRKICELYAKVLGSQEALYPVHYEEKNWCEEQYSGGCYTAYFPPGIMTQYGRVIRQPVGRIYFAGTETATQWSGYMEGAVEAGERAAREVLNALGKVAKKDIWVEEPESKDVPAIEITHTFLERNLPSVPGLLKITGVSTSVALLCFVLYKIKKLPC
# [2] = molecular target: T2, Amine oxidase [flavin-containing] B (Rattus norvegicus, UniProt P19643); assay: Inhibition of MAO-B in rat liver mitochondria using p-tyramine as substrate preincubated for 10 mins followed by substrate addition measured after 30 mins in presence of MAO-A inhibitor clorgyline by Amplex red dye-based fluorescence assay
# T2 sequence (P19643 whole entry): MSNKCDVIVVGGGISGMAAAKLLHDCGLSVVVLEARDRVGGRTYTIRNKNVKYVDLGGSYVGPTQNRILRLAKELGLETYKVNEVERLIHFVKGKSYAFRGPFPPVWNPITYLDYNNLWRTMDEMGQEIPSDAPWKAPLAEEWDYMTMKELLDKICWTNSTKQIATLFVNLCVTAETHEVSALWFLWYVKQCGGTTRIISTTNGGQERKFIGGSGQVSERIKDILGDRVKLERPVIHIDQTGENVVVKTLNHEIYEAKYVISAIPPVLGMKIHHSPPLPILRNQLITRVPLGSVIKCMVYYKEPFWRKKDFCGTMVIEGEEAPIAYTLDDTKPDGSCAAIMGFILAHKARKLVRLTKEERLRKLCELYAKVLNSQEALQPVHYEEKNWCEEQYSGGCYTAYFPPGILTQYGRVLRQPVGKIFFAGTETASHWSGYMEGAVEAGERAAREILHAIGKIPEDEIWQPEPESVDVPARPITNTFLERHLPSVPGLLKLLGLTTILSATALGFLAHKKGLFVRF
# [3] = species: Rattus norvegicus; assay: Selectivity index, ratio of IC50 for MAO-A in rat liver mitochondria to IC50 for MAO-B in rat liver mitochondria
# [4] = molecular target: T1, Amine oxidase [flavin-containing] A; assay: Competitive inhibition of MAO-A in rat liver mitochondria using p-tyramine as substrate up to 0.15 uM preincubated for 10 mins followed by substrate addition measured after 30 mins by Lineweaver-burk plot analysis; settings: 0.5 h
# [5] = molecular target: T2, Amine oxidase [flavin-containing] B; assay: Competitive inhibition of MAO-B in rat liver mitochondria using p-tyramine as substrate up to 0.3 uM preincubated for 10 mins followed by substrate addition measured after 30 mins by Lineweaver-burk plot analysis; settings: 0.5 h
SMILES,IC50 [1] [µM],IC50 [2] [µM],Ratio IC50 [3],inhibition (INH) [4],inhibition (INH) [5]
C/C(=N\NC(=O)C1=C(O)c2ccccc2S(=O)(=O)N1)c1ccccc1,0.11,3.33,0.03,Active,–
CN1C(C(=O)N/N=C/c2ccccc2)=C(O)c2ccccc2S1(=O)=O,21.1,1.76,11.9,–,–
CN1C(C(=O)NN)=C(O)c2ccccc2S1(=O)=O,0.12,1.5,0.08,–,–
CC(C)c1ccc(/C=N/NC(=O)C2=C(O)c3ccccc3S(=O)(=O)N2Cc2ccccc2)cc1,5.07,36.8,0.13,–,–
COC(=O)C1=C(O)c2ccccc2S(=O)(=O)N1Cc1ccccc1,9.51,0.29,32.8,–,–
O=C(N/N=C/c1ccc(Cl)cc1)C1=C(O)c2ccccc2S(=O)(=O)N1,0.177,0.31,0.57,–,–
O=C(N/N=C/c1ccccc1)C1=C(O)c2ccccc2S(=O)(=O)N1,1.91,8.86,0.21,–,–
C/C(=N\NC(=O)C1=C(O)c2ccccc2S(=O)(=O)N1C)c1ccc(F)cc1,10.8,25.1,0.43,–,–
O=C(NN=C1CCCC1)C1=C(O)c2ccccc2S(=O)(=O)N1Cc1ccccc1,≥ 100,0.99,> 101,–,–
CN1C(C(=O)N/N=C/c2cccc(Cl)c2)=C(O)c2ccccc2S1(=O)=O,29.8,38.3,0.78,–,–
O=C(N/N=C/c1cccc(Cl)c1)C1=C(O)c2ccccc2S(=O)(=O)N1,0.35,39.3,0.01,–,–
Cc1ccc(/C=N/NC(=O)C2=C(O)c3ccccc3S(=O)(=O)N2)cc1,7.48,0.64,11.7,–,–
O=C(N/N=C/c1ccc(Cl)cc1)C1=C(O)c2ccccc2S(=O)(=O)N1Cc1ccccc1,≥ 100,2.08,> 48.1,–,–
COc1ccc(/C=N/NC(=O)C2=C(O)c3ccccc3S(=O)(=O)N2Cc2ccccc2)cc1,0.24,0.29,0.83,–,–
COc1ccc(/C=N/NC(=O)C2=C(O)c3ccccc3S(=O)(=O)N2C)cc1,18.9,23.1,0.82,–,–
CN1C(C(=O)N/N=C/c2ccccc2O)=C(O)c2ccccc2S1(=O)=O,11.4,3.41,3.34,–,–
CC(C)c1ccc(/C=N/NC(=O)C2=C(O)c3ccccc3S(=O)(=O)N2)cc1,≥ 100,38.1,> 2.62,–,–
CCOc1ccc(/C=N/NC(=O)C2=C(O)c3ccccc3S(=O)(=O)N2)cc1,16.9,9.31,1.81,–,–
C/C(=N\NC(=O)C1=C(O)c2ccccc2S(=O)(=O)N1)c1ccc(F)cc1,53.4,40.3,1.32,–,–
Cc1ccc(/C=N/NC(=O)C2=C(O)c3ccccc3S(=O)(=O)N2Cc2ccccc2)cc1,≥ 100,89.1,> 1.12,–,–
C/C(=N\NC(=O)C1=C(O)c2ccccc2S(=O)(=O)N1Cc1ccccc1)c1ccc(Cl)cc1,0.33,10.1,0.03,–,–
CC(C)c1ccc(/C=N/NC(=O)C2=C(O)c3ccccc3S(=O)(=O)N2C)cc1,0.44,18.2,0.02,–,–

SMILES,IC50 [1] [µM],IC50 [2] [µM],Ratio IC50 [3],inhibition (INH) [4],inhibition (INH) [5]
NNC(=O)C1=C(O)c2ccccc2S(=O)(=O)N1,1.58,4.33,0.36,–,–
CN1C(C(=O)NN=C2CCCC2)=C(O)c2ccccc2S1(=O)=O,0.38,8.61,0.04,–,–
COC(=O)CN1C(=O)c2ccccc2S1(=O)=O,1.11,0.27,4.11,–,–
O=C(N/N=C/c1ccccc1)C1=C(O)c2ccccc2S(=O)(=O)N1Cc1ccccc1,≥ 100,9.52,> 10.5,–,–
COc1ccc(/C=N/NC(=O)C2=C(O)c3ccccc3S(=O)(=O)N2)cc1,5.76,1.91,3.02,–,–
C/C(=N\NC(=O)C1=C(O)c2ccccc2S(=O)(=O)N1C)c1ccccc1,6.67,7.14,0.93,–,–
NNC(=O)C1=C(O)c2ccccc2S(=O)(=O)N1Cc1ccccc1,≥ 100,10.6,> 9.43,–,–
COC(=O)C1=C(O)c2ccccc2S(=O)(=O)N1,2.97,0.21,14.1,–,Active
CCOc1ccc(/C=N/NC(=O)C2=C(O)c3ccccc3S(=O)(=O)N2Cc2ccccc2)cc1,28.3,5.78,4.89,–,–
Cc1ccc(/C=N/NC(=O)C2=C(O)c3ccccc3S(=O)(=O)N2C)cc1,4.85,24.1,0.2,–,–
O=C(N/N=C/c1ccccc1O)C1=C(O)c2ccccc2S(=O)(=O)N1Cc1ccccc1,18.7,4.24,4.41,–,–
O=C(NN=C1CCCC1)C1=C(O)c2ccccc2S(=O)(=O)N1,≥ 100,0.92,> 109,–,–
O=C(N/N=C/c1ccccc1O)C1=C(O)c2ccccc2S(=O)(=O)N1,5.07,9.47,0.53,–,–
C/C(=N\NC(=O)C1=C(O)c2ccccc2S(=O)(=O)N1)c1ccc(Cl)cc1,≥ 100,10.9,> 9.17,–,–
CN1C(C(=O)N/N=C/c2ccc(Cl)cc2)=C(O)c2ccccc2S1(=O)=O,6.12,15.5,0.39,–,–
C/C(=N\NC(=O)C1=C(O)c2ccccc2S(=O)(=O)N1Cc1ccccc1)c1ccccc1,1.22,2.26,0.54,–,–
COC(=O)C1=C(O)c2ccccc2S(=O)(=O)N1C,26.6,23.1,1.15,–,–
C/C(=N\NC(=O)C1=C(O)c2ccccc2S(=O)(=O)N1Cc1ccccc1)c1ccc(F)cc1,≥ 100,6.04,> 16.5,–,–
CCOc1ccc(/C=N/NC(=O)C2=C(O)c3ccccc3S(=O)(=O)N2C)cc1,0.32,0.76,0.42,–,–
C/C(=N\NC(=O)C1=C(O)c2ccccc2S(=O)(=O)N1C)c1ccc(Cl)cc1,11.2,0.76,14.7,–,–
O=C(N/N=C/c1cccc(Cl)c1)C1=C(O)c2ccccc2S(=O)(=O)N1Cc1ccccc1,0.96,36.4,0.02,–,–
